Tests used:
[1] = system: Smad2/Smad3 phosphorylation; assay: Phospho-Smad2/3 Inhibition Assay (western blot), Panc-1; format: cell-based, human; settings: at 10 μM, Panc-1 pancreatic cancer cell line; starred symbols = activation
Protocol: Protocol for Phospho-Smad2/3 Inhibition Assay
This assay is referred to as the “Phospho-Smad2/3 Inhibition Assay” throughout this application.
Cell lines: Human tumor-derived pancreatic cancer cell line Panc-1 (expressing KRas G12D mutant) and mouse muscle myoblast C2C12 were purchased from American Type Culture Collection and grown in complete DMEM-High Glucose, supplemented with penicillin (100 U/mL), streptomycin (100 μg/mL), and 10% heat-inactivated FBS at 37° C. in a humidified incubator with 5% CO2.
Method: Cells were plated at 350000 cells/well density in a 12-well plate, allowed 3 hours to adhere to the plate, then starved in the appropriate medium in the presence of 0.5% FBS overnight. The small molecules to be tested were added to the cells in the final concentration of 10 μM in the presence of 0.3% DMSO for 3 hours incubation at 37° C. For IC50 value determination, serial dilutions of compounds were added to cells under the same conditions. Next, Panc-1 cells were stimulated with 10 ng/ml TGF-b1 for 1 hour, and C2C12 cells were stimulated with 10 ng/ml TGF-b1 for 20 minutes (recombinant human TGF-b1, R&D Systems). After stimulation cells were lysed with lysis buffer containing 1% Triton X-100, EDTA, and Halt™ Protease & Phosphatase Inhibitor Cocktail (Thermo Scientific). Protein concentration was assessed by BCA protein assay (Thermo Scientific). Phosphorylation level of Smad2/Smad3 was determined by western blot.
Western blot protocol: Equal amounts of protein (15-50 μg) were separated by SDS-PAGE and transferred to nitrocellulose membranes (Invitrogen by Thermo Fisher Scientific). The membrane was stained with Ponceau S Stain (Boston BioProducts) to verify uniform protein loading. Membranes were blocked with 10% milk and phosphorylation levels of Smad2/Smad3 were assessed by incubating overnight at 4° C. with the following antibodies: Phospho-Smad2 (Ser465/467) and Phosph-Smad3 (Ser423/425), both from Cell Signaling Technology. Then the membranes were incubated with HRP-conjugated secondary antibody (Jackson Immunoresearch, West Grove, PA). Bands were incubated in Amersham ECL Prime Western Blotting Detection Reagent (GE Healthcare) and visualized using the ChemiDoc MP imaging system (Bio-Rad).

TNF-alpha = TNF-alpha Quantification Assay (ELISA), LPS-stimulated RAW 264.7; format: cell-based; settings: Mus musculus, RAW264.7; at 10 μM; read-out: TNFα: % inh.
KRas G12D mutant = assay: Ras GTP Binding Domain Inhibition Assay (Ras Superfamily Assay); settings: 20 μM compound; for KRas G12D mutant + SOS: % inh.: with SOS; for KRas G12D mutant: % inh.: without SOS
From the text: (§1) Biological Example 3: Ras GTP Binding Domain Inhibition Assay
(§2) The assays described in Example 3 are collectively referred to as the “Ras Superfamily Assay” throughout this application.
(§3) A Ras Superfamily Activity Assay (as disclosed in International Application No. PCT/US2018/038613, filed Jun. 20, 2018, which is incorporated by reference in its entirety) was used as a specific assay to evaluate compounds against the following for the following Ras Superfamily proteins: KRas wild type, KRas Q61H mutant, KRas G12C mutant, KRas G12D mutant, Rac-1, and Rho-A.
(§4) • 25 mM Tris-HCl, pH 7.4 • 27 mM KCl • 137 mM NaCl • 1 mM MgCl2 • 1 mM DTT Buffer-II: • 50 mM Tris-HCl, pH 7.0 • 1 mM MgCl2 • 1 mM DTT
(§5) The small GTPases proteins: KRas wild type. KRas Q61H mutant, KRas G12C mutant, KRas G12D mutants, Rac-1, and Rho-A were expressed as His-tagged proteins. In addition, the Guanosine nucleotide Exchange Factor (GEF) Sos protein (residues 556-1049) was expressed as a His-tagged protein. In cells, the guanine nucleotide exchange factor Sos protein promotes activation of Ras proteins by stimulating an exchange of GDP for GTP. The inclusion of Sos to the Ras GTP binding domain inhibition assay may be considered as an alternative representation of physiological cellular conditions for evaluating the inhibitory activity of some of the tested small molecules.
(§6) For the assay, all purified small GTPases proteins were diluted in Buffer-I or Buffer-II to a final concentration of 10-30 μg/mL. 200 μL of each diluted protein was added to a nickel-coated 96-well plate and incubated overnight at 4° C. Then the protein solution was discarded and 200 μL of Buffer-I or Buffer-II was added to each well in the presence of 1% DMSO. Compounds to be tested were added to the protein-coated wells at final concentration of 20 μM, and incubated for 3 hours at room temperature with and without 10-30 μg/mL of Sos added to the final hour of the incubation. When performing IC50 measurements a serial dilution of all tested concentrations was added. Then Cy3-GTP or Cy5-GTP was added to each well to a final concentration of 100 nM. The labeled GTP was incubated for 45 minutes at room temperature. Following GTP incubation, wells were washed 3× in Buffer-I or Buffer-II and 200 μL of Buffer-I or Buffer-II was added to each well. Following washes, the amount of bound labeled-GTP was measured using a SpectraMax M3 (Molecular Devices).

KRas wild type = assay: as above; settings: 20 μM compound; for KRas wild type + SOS: % inh.: with SOS; for KRas wild type: % inh.: without SOS
From the text: as §1, §2, §3, §4, §5, §6

Rac-1 = biological target: T1, Rac-1 (Homo sapiens, UniProt P63000); assay: as above; settings: read-out: Rac-1: % inh.
T1 construct: made in house
From the text: as §1, §2, §3, §4, §5, §6

Compound	KRas G12D mutant + SOS: % inh. (KRas G12D mutant)	KRas G12D mutant: % inh. (KRas G12D mutant)	KRas wild type + SOS: % inh. (KRas wild type)	KRas wild type: % inh. (KRas wild type)	inhibition at 20 µM (Rac-1)	% inh of Smad2/3 phosphorylation in Panc-1 [1]	inhibition at 10 µM (TNF-alpha)
Cc1ccnc(Nc2nc(-c3nccn3C)nn3cc(-c4ccn(C5CC5)n4)c(C)c23)c1 [Compound 144, 6-(1-Cyclopropyl-1H-pyrazol-3-yl)-5-methyl-2-(1-methyl-1H-imidazol-2-yl)-N-(4-methylpyridin-2-yl)pyrrolo[2,1-f][1,2,4]triazin-4-amine]	D (D = 76-100% inhibition)	D (D = 76-100% inhibition)	D (D = 76-100% inhibition)	C (C = 50-75% inhibition)	76 to 100%	D (D = 76-100% inhibition)	1 to 24%
Cc1c(-c2ccn(C)n2)cn2nc(-c3nccn3C)nc(Nc3cn(C(C)C)nn3)c12 [Compound 109, N-(1-Isopropyl-1H-1,2,3-triazol-4-yl)-5-methyl-2-(1-methyl-1H-imidazol-2-yl)-6-(1-methyl-1H-pyrazol-3-yl)pyrrolo[2,1-f][1,2,4]triazin-4-amine]	C (C = 50-75% inhibition)	D (D = 76-100% inhibition)	C (C = 50-75% inhibition)	D (D = 76-100% inhibition)	76 to 100%	D* (D* = 76-100% activation)	0%
Cc1c(-c2ccn(C3CC3)n2)cn2nc(-c3nccn3C)nc(O)c12 [Compound 134, 6-(1-Cyclopropyl-1H-pyrazol-3-yl)-5-methyl-2-(1-methyl-1H-imidazol-2-yl)pyrrolo[2,1-f][1,2,4]triazin-4-ol]	A (A = 1-25% inhibition)	A (A = 1-25% inhibition)	0 (0 = 0% inhibition)	0 (0 = 0% inhibition)	1 to 25%	B (B = 26-45% inhibition)	1 to 24%
Cc1c(-c2ccn(C)n2)cn2nc(-c3nccn3C)nc(Nc3cc(C4CC4)[nH]n3)c12 [Compound 104, N-(5-Cyclopropyl-1H-pyrazol-3-yl)-5-methyl-2-(1-methyl-1H-imidazol-2-yl)-6-(1-methyl-1H-pyrazol-3-yl)pyrrolo[2,1-f][1,2,4]triazin-4-amine]	D (D = 76-100% inhibition)	D (D = 76-100% inhibition)	D (D = 76-100% inhibition)	D (D = 76-100% inhibition)	76 to 100%	D* (D* = 76-100% activation)	0%
Cc1c(-c2cccnc2)cn2nc(-c3nccn3C)nc(Nc3ccncn3)c12 [Compound 156, 5-Methyl-2-(1-methyl-1H-imidazol-2-yl)-6-(pyridin-3-yl)-N-(pyrimidin-4-yl)pyrrolo[2,1-f][1,2,4]triazin-4-amine]	D (D = 76-100% inhibition)	D (D = 76-100% inhibition)	D (D = 76-100% inhibition)	D (D = 76-100% inhibition)	76 to 100%	D (D = 76-100% inhibition)	0%
CO[C@H]1C[C@@H](Nc2nc(-c3nccn3C)nn3cc(-c4cccnc4)c(C)c23)C1 [Compound 153, N-((1s,3s)-3-methoxy-cyclobutyl)-5-methyl-2-(1-methyl-1H-imidazol-2-yl)-6-(pyridin-3-yl)pyrrolo[2,1-f][1,2,4]triazin-4-amine]	C (C = 50-75% inhibition)	C (C = 50-75% inhibition)	B (B = 26-49% inhibition)	B (B = 26-49% inhibition)	50 to 75%	C (C = 46-75% inhibition)	0%
COc1cc(Nc2nc(-c3nccn3C)nn3cc(-c4ccccn4)c(C)c23)ncn1 [Compound 94, N-(6-Methoxypyrimidin-4-yl)-5-methyl-2-(1-methyl-1H-imidazol-2-yl)-6-(pyridin-2-yl)pyrrolo[2,1-f][1,2,4]triazin-4-amine]	B (B = 26-49% inhibition)	C (C = 50-75% inhibition)	B (B = 26-49% inhibition)	C (C = 50-75% inhibition)	50 to 75%	B* (B* = 26-45% activation)	25 to 49%

The next lines start with results.

KRas G12D mutant + SOS: % inh. (KRas G12D mutant)	KRas G12D mutant: % inh. (KRas G12D mutant)	KRas wild type + SOS: % inh. (KRas wild type)	KRas wild type: % inh. (KRas wild type)	inhibition at 20 µM (Rac-1)	Compound	% inh of Smad2/3 phosphorylation in Panc-1 [1]	inhibition at 10 µM (TNF-alpha)
D (D = 76-100% inhibition)	D (D = 76-100% inhibition)	D (D = 76-100% inhibition)	C (C = 50-75% inhibition)	76 to 100%	COc1ccnc(Nc2nc(-c3nccn3C)nn3cc(-c4cccnc4)c(-c4ccccn4)c23)c1 [Compound 166, N-(4-Methoxypyridin-2-yl)-2-(1-methyl-1H-imidazol-2-yl)-5-(pyridin-2-yl)-6-(pyridin-3-yl)pyrrolo[2,1-f][1,2,4]triazin-4-amine]	C* (C* = 46-75% activation)	75 to 100%
0 (0 = 0% inhibition)	0 (0 = 0% inhibition)	0 (0 = 0% inhibition)	A (A = 1-25% inhibition)	0%	COc1cc(-c2cn3nc(-c4nccn4C)nc(N[C@H]4C[C@@H](OC)C4)c3c2C)ccn1 [Compound 162, N-((1s,3s)-3-Methoxycyclobutyl)-6-(2-methoxypyridin-4-yl)-5-methyl-2-(1-methyl-1H-imidazol-2-yl)pyrrolo[2,1-f][1,2,4]triazin-4-amine]	A (A = 1-25% inhibition)	25 to 49%
D (D = 76-100% inhibition)	D (D = 76-100% inhibition)	D (D = 76-100% inhibition)	D (D = 76-100% inhibition)	76 to 100%	COc1ccnc(Nc2nc(-c3nccn3C)nn3cc(-c4cccnc4)c(-c4cccnc4)c23)c1 [Compound 169, N-(4-methoxypyridin-2-yl)-2-(1-methyl-1H-imidazol-2-yl)-5,6-di(pyridin-3-yl)pyrrolo[2,1-f][1,2,4]triazin-4-amine]	C (C = 46-75% inhibition)	0%

— patent publication US12459951B2, “Compounds that interact with RAS superfamily proteins for treatment of cancers, inflammatory diseases, rasopathies, and fibrotic disease” (SHY Therapeutics, LLC, priority 2022, dated 2025)
